Measured values as given in patent US11958860B2, “Crystal form of compound, and preparation method therefor and use thereof” (JIANGSU KANION PHARMACEUTICAL CO., LTD., priority 2021, dated 2024).

Tests used:
Assay type in all cases: physicochemical
[1] = Transformation experiment between crystal forms (heating); settings: heating temperature 120 °C, heating time 40 min
Text: Four crystal forms, such as Form A, Form B, Form C, and Form D, are experienced for mutual transformation experiment. Experimental conditions and results are as follows: […]

[2] = Dynamic vapor sorption (DVS) hygroscopicity test; settings: for water loss percentage / water absorption percentage: 25 °C
Text: Dynamic vapor sorption (DVS) test/hygroscopicity test is to quickly determine the increase and loss of sample moisture caused by a flowing carrier gas with a set relative humidity (RH). The sample is placed on a high-sensitivity and high-stability digital micro-balancer in a self-suspension state, and then the sorption/desorption of water vapor is detected by determining the increase/decrease of material mass, so as to determine the hygroscopicity of the sample.
In the present invention, test parameters of the DVS are as follows: device model: SMS DVS Intrinsic; 0-95% RH; temperature: 25° C.
A dynamic vapor sorption (DVS) device is used to investigate the moisture sorption and desorption of samples at a temperature of 25° C. and a relative humidity of 0-95%, so as to determine the hygroscopic sorption properties of different crystal forms.

[3] = Percentage of solvent or water in crystal form
Text: Thermo gravimetric analysis (TGA for short) is an analysis technique to determine the change of mass of substances with temperature under conditions of programmed temperature control. […] Thus, such thermo gravimetric analysis is suitable for detecting the loss of crystallization solvents or crystallization water molecules in crystalline substances or the process and magnitude of sublimation and decomposition of the sample, and can also effectively distinguish whether the substances contain the crystallization solvents or the crystallization water molecules.
In the present invention, test parameters of the TGA are as follows: device model: Netzsch TG 209F3; temperature range: 30-400° C.; scanning rate: 10 k/min; purge gas: 25 ml/min; and protective gas: 15 mL/min.

[4] = Comparison of crystal form stability (equilibrated suspension); settings: conclusion from the crystal transformation results (Tables 2 and 3)
Protocol: 5 mg of each sample is taken and mixed with 1 ml of a solvent at 25° C. Experimental conditions and results are as follows: […]

Compound	Crystal form of product [1]	water loss percentage ([2]; RH 65%)	water loss percentage ([2]; RH 80%)	Percentage of solvent or water [3]	water absorption percentage ([2]; RH 65%)	water absorption percentage ([2]; RH 80%)	relative stability of crystal forms [4]	change in hygroscopicity and weight (DVS) ([2]; relative humidity of 0-95%, FIG. 5)
COc1cc2c(cc1OC)CN1CCc3cc4c(cc3C1C2)OCO4 (single isomer, unassigned) [Form B, S-(−)-2,3-methylenedioxy-5,8,13,13a-tetrahydro-10,11-dimethoxy-6H-dibenzo[a, g]quinolizine]	Form A	percentage (0.2%)	percentage (0.3%)	10.8%	–	–	–	–
COc1cc2c(cc1OC)CN1CCc3cc4c(cc3C1C2)OCO4 (single isomer, unassigned) [Form C, S-(−)-2,3-methylenedioxy-5,8,13,13a-tetrahydro-10,11-dimethoxy-6H-dibenzo[a, g]quinolizine]	Form A	–	–	4.4%	percentage (0.5%)	percentage (1.2%)	–	–
COc1cc2c(cc1OC)CN1CCc3cc4c(cc3C1C2)OCO4 (single isomer, unassigned) [Form D, S-(−)-2,3-methylenedioxy-5,8,13,13a-tetrahydro-10,11-dimethoxy-6H-dibenzo[a, g]quinolizine]	Form A	–	–	0.0%	percentage (0.2%)	percentage (0.3%)	–	–
COc1cc2c(cc1OC)CN1CCc3cc4c(cc3[C@@H]1C2)OCO4 [Form A, S-(−)-2,3-methylenedioxy-5,8,13,13a-tetrahydro-10,11-dimethoxy-6H-dibenzo[a, g]quinolizine]	Form A	–	–	0.0%	percentage (0.1%)	percentage (0.2%)	most stable crystal form	approximately 0.6%
